# Results from PMC5515971, “Utility of spherical human liver microtissues for prediction of clinical drug-induced liver injury” (Archives of Toxicology, 2017).
# Like-named read-outs stand apart in the source and are kept apart here.
# How the values were obtained:
# [1] = test system: 3D human liver microtissues (hLiMT); assay: Cytotoxicity (cellular ATP, CellTiter-Glo 2.0) in 3D human liver microtissues, 14 day repeat-dose treatment
# [2] = test system: primary human hepatocytes (PHH); assay: Cytotoxicity (cellular ATP, CellTiter-Glo) in 2D plated primary human hepatocytes, 48 h treatment; type: cell-based; settings: for IC50: read-out: Geomean IC50;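 for all read-outs here: 384-well plates, luminescence read-out, normalized to vehicle wells with 1% DMSO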
# [3] = cited from earlier work
# [4] = ref Chen et al 2016 / Chen et al 2011; cited from earlier work
# [5] = cited from earlier work; for DILI category: clinical, from literature and product labels, ref Garside et al. 2014
# [6] = Homo sapiens, Hepatocyte, 336 h, read-out: Geomean IC50 [µM]
# [7] = Hepatocyte, 2D primary human hepatocytes (lot IZT), 48 h treatment, total cellular ATP content
# [8] = human Cmax total, used for IC50/Cmax
# [9] = human total plasma Cmax, ref literature values
# [10] = Table 1, ref Garside et al. (2014)
# [11] = clinical DILI severity category, 1-5
# [12] = read-out: Geomean IC50, decrease in total cellular ATP content, hLiMT treated for 14 days, hepatocyte lot IZT (except Dexamethasone) co-cultured with NPCs, n=1 or geometric mean
# [13] = 2D primary human hepatocytes (lot IZT), 48 h treatment, total cellular ATP content
compound,measurement,setting,value
N[C@@H]1[C@H]2CN(c3nc4c(cc3F)c(=O)c(C(=O)O)cn4-c3ccc(F)cc3F)C[C@@H]12 [Trovafloxacin],IC50,[1]; [6],> 125 µM
same,IC50,[2]; [7],> 125 µM
CN(C)CCC=C1c2ccccc2CCc2ccccc21 [Amitriptyline],Cmax,[3]; [8],721 nM
same,Cmax,[3]; [9],720 nM
same,FDA DILI Classification DILI severity score,[4],5
same,LTKB DILI classification,[4],less DILI concern
same,IC50,[1]; [6],18.8 µM
same,IC50,[2]; [7],41.8 µM
same,DILI severity category,[5]; [10],3: Low clinical DILI concern (N = 23)
same,DILI severity category,[5]; [11],3. Low Clinical DILI Concern
same,DILI category,[5],3. Low Clinical DILI Concern
N[C@@H]1CON=C1O [Cycloserine],Cmax,[3]; [8],333000 nM
same,Cmax,[3]; [9],333000 nM
same,IC50,[1]; [6],7460 µM
same,IC50,[2]; [7],> 10 µM
CC/C(=C(\c1ccccc1)c1ccc(OCCN(C)C)cc1)c1ccccc1 [Tamoxifen],Cmax,[3]; [8],400 nM
same,Cmax,[3]; [9],400 nM
CCN1C(=O)NC(c2ccccc2)C1=O (centres unmarked) [Ethotion],Cmax,[3]; [8],367000 nM
same,Cmax,[3]; [9],367000 nM
same,IC50,[1]; [6],> 150 µM
same,IC50,[2]; [7],> 1250 µM
OC(CCN1CCCC1)(c1ccccc1)C1CCCCC1 (centres unmarked) [Procyclidine],Cmax,[3]; [8],2190 nM
same,Cmax,[3]; [9],2190 nM
same,IC50,[1]; [6],117 µM
same,IC50,[2]; [7],97.9 µM
same,classification at 50× MOS threshold,[2]; PHH 48 h,false positive
CN1[C@@H]2CC[C@H]1C[C@@H](OC(=O)[C@H](CO)c1ccccc1)C2 [Hyoscyamine (Daturine)],IC50,[1]; [12],> 10 µM
same,IC50,[2]; [13],> 10 µM
CN(C)C(=O)Oc1ccc[n+](C)c1 [Pyridostigmine],Cmax,[3]; [8],1100 nM
same,Cmax,[3]; [9],1100 nM
same,IC50,[1]; [6],> 100 µM
same,IC50,[2]; [7],> 200 µM
CNCCCN1c2ccccc2CCc2ccccc21 [Desipramine],Cmax,[3]; [8],1880 nM
same,Cmax,[3]; [9],1880 nM
same,FDA DILI Classification DILI severity score,[4],3
same,LTKB DILI classification,[4],Ambiguous DILI concern
same,DILI severity category,[5]; [10],3: Low clinical DILI concern (N = 23)
same,DILI severity category,[5]; [11],3. Low Clinical DILI Concern
same,DILI category,[5],3. Low Clinical DILI Concern
COC(=O)C1=C(C)NC(C)=C(C(=O)OCCN(C)Cc2ccccc2)C1c1cccc([N+](=O)[O-])c1 (centres unmarked) [Nicardipine],Cmax,[3]; [8],80 nM
same,Cmax,[3]; [9],80 nM
CCCC(CCC)C(=O)O [Valproic acid],Cmax,[3]; [8],693000 nM
same,Cmax,[3]; [9],693000 nM
same,IC50,[1]; [6],> 100 µM
same,IC50,[2]; [7],> 100 µM
Cc1ccc(N(CC2=NCCN2)c2cccc(O)c2)cc1 [Phentolamine],Cmax,[3]; [8],90 nM
same,Cmax,[3]; [9],90 nM
same,IC50,[1]; [6],> 100 µM
same,IC50,[2]; [7],> 100 µM
C#C[C@]1(O)CC[C@H]2[C@@H]3CCC4=Cc5oncc5C[C@]4(C)[C@H]3CC[C@@]21C [Danazol],Cmax,[3]; [9],207000 nM
same,IC50,[1]; [6],> 100 µM
same,IC50,[2]; [7],108 µM
Cc1ccc(-c2cc(C(F)(F)F)nn2-c2ccc(S(N)(=O)=O)cc2)cc1 [Celocoxib],Cmax,[3]; [8],2540 nM
same,Cmax,[3]; [9],2540 nM
same,IC50,[1]; [12],26.2 µM
same,IC50,[2]; [13],155 µM
same,DILI severity category,[5]; [10],2: High clinical DILI concern (N = 23)
same,DILI severity category,[5]; [11],2. High Clinical DILI Concern
same,DILI category,[5],2. High Clinical DILI Concern
CS(=O)(=O)Nc1ccc([N+](=O)[O-])cc1Oc1ccccc1 [Nimesulide],Cmax,[3]; [8],21100 nM
same,Cmax,[3]; [9],21100 nM
same,IC50,[1]; [6],60.5 µM
same,IC50,[2]; [7],436 µM
Nc1cc(N2CCCCC2)nc(N)[n+]1[O-] [Minoxidil],Cmax,[3]; [8],1200 nM
same,Cmax,[3]; [9],1190 nM
same,IC50,[1]; [6],> 100 µM
same,IC50,[2]; [7],> 100 µM
CN(CCOc1ccc(CC2SC(=O)NC2=O)cc1)c1ccccn1 (centres unmarked) [Rosiglitazone],Cmax,[3]; [8],1000 nM
same,Cmax,[3]; [9],1040 nM
same,FDA DILI Classification DILI severity score,[4],3
same,LTKB DILI classification,[4],less DILI concern
same,IC50,[2]; [7],> 100 µM
same,DILI severity category,[5]; [10],2: High clinical DILI concern (N = 23)
same,DILI severity category,[5]; [11],2. High Clinical DILI Concern
same,DILI category,[5],2. High Clinical DILI Concern
CCOC(=O)C1=C(C)NC(C)=C(C(=O)OC)C1c1cccc(Cl)c1Cl (centres unmarked) [Felodipine],Cmax,[3]; [8],30 nM
same,Cmax,[3]; [9],30 nM
same,IC50,[1]; [6],> 10 µM
same,IC50,[2]; [7],> 10 µM
N[C@@H](Cc1cc(I)c(Oc2ccc(O)c(I)c2)c(I)c1)C(=O)O [Liothyronine],Cmax,[3]; [8],2.46 nM
same,Cmax,[3]; [9],2.46 nM
same,IC50,[1]; [6],> 10 µM
same,IC50,"[2]; Homo sapiens, Hepatocyte, 48 h",> 10 µM
C[C@H]1COc2c(N3CCN(C)CC3)c(F)cc3c(=O)c(C(=O)O)cn1c23 [Levofloxacin],Cmax,[3]; [8],15800 nM
same,Cmax,[3]; [9],15800 nM
same,IC50,[1]; [6],> 320 µM
same,IC50,[2]; [7],> 500 µM
O=P1(N(CCCl)CCCl)NCCCO1 (centres unmarked) [Cyclophosphamide],Cmax,"[3]; human, in vivo",143000 nM
same,IC50,[1]; [6],> 2000 µM
same,IC50,"[2]; Homo sapiens, Hepatocyte, 48 h",> 2000 µM
CN(C)CCCN1c2ccccc2CCc2ccccc21 [Imipramine],Cmax,[3]; [8],540 nM
same,Cmax,[3]; [9],530 nM
C[C@H]1O[C@@H](O[C@H]2[C@@H](O)C[C@H](O[C@H]3[C@@H](O)C[C@H](O[C@H]4CC[C@@]5(C)[C@H](CC[C@@H]6[C@@H]5C[C@@H](O)[C@]5(C)[C@@H](C7=CC(=O)OC7)CC[C@]65O)C4)O[C@@H]3C)O[C@@H]2C)C[C@H](O)[C@@H]1O [Digoxin],IC50,[1]; [6],0.33 µM
same,classification at 100 μM IC50 threshold,[1]; hLiMT 14 days,false positives
same,IC50,"[2]; Homo sapiens, Hepatocyte, 48 h",< 0.15 µM
same,classification at 100 μM IC50 threshold,[2]; PHH 48 h,false positives
same,classification at 50× MOS threshold,[2]; PHH 48 h,false positive
CCN(CC)CC#CCOC(=O)C(O)(c1ccccc1)C1CCCCC1 (centres unmarked) [Oxybutynin],Cmax,[3]; [8],22 nM
same,Cmax,[3]; [9],22.4 nM
O=C(O)COc1ccc(C(=O)c2cccs2)c(Cl)c1Cl [Tienilic Acid],Cmax,[3]; [8],82700 nM
same,Cmax,[3]; [9],82700 nM
same,IC50,[1]; [6],567 µM
same,IC50,[2]; [7],> 100 µM
same,DILI severity category,[5]; [10],1: Severe clinical DILI (N = 23)
same,DILI severity category,[5]; [11],1. Severe Clinical DILI
same,DILI category,[5],1. Severe Clinical DILI
Clc1ccccc1CN1CCc2sccc2C1 [Ticlopidine],Cmax,[3]; [8],8100 nM
same,Cmax,[3]; [9],8070 nM
CN1CCN(C2=Nc3cc(Cl)ccc3Nc3ccccc32)CC1 [Clozapine],Cmax,[3]; [8],2400 nM
same,Cmax,[3]; [9],2450 nM
CNCCC(Oc1ccc(C(F)(F)F)cc1)c1ccccc1 (centres unmarked) [Fluoxetine],Cmax,[3]; [8],50 nM
same,Cmax,[3]; [9],50 nM
CO[C@@]12[C@H](COC(N)=O)C3=C(C(=O)C(C)=C(N)C3=O)N1C[C@@H]1N[C@@H]12 [Mitomycin C],Cmax,[3]; [8],7100 nM
same,Cmax,[3]; [9],7100 nM
same,IC50,[1]; [6],< 0.8 µM
same,IC50,"[2]; Homo sapiens, Hepatocyte, 48 h",14.8 µM
Cc1onc(-c2c(F)cccc2Cl)c1C(=O)N[C@@H]1C(=O)N2[C@@H]1SC(C)(C)[C@@H]2C(=O)O [Flucloxacillin],Cmax,[3]; [8],66100 nM
same,Cmax,[3]; [9],66100 nM
same,IC50,[1]; [6],12200 µM
same,IC50,[2]; [7],4670 µM
same,DILI severity category,[5]; [10],2: High clinical DILI concern (N = 23)
same,DILI severity category,[5]; [11],2. High Clinical DILI Concern
same,DILI category,[5],2. High Clinical DILI Concern
CCN(CC)Cc1cc(Nc2ccnc3cc(Cl)ccc23)ccc1O [Amodiaquine],Cmax,[3]; [8],1910 nM
same,Cmax,[3]; [9],1910 nM
same,IC50,[1]; [6],< 7.8 µM
same,IC50,[2]; [7],18.5 µM
same,DILI severity category,[5]; [10],2: High clinical DILI concern (N = 23)
same,DILI severity category,[5]; [11],2. High Clinical DILI Concern
same,DILI category,[5],2. High Clinical DILI Concern
CN1C(C(=O)Nc2nccs2)=C(O)c2ccccc2S1(=O)=O [Sudoxicam],Cmax,[3]; [8],77000 nM
same,Cmax,[3]; [9],77100 nM
same,IC50,[1]; [6],> 100 µM
same,IC50,[2]; [7],> 100 µM
